From patent US8383814B2, “Substituted tetrahydropyran spiro pyrrolidinone and piperidinone, preparation and therapeutic use thereof” (Sanofi, priority 2008, dated 2013) come the findings set out here.

Assay [1] relates to rhesus H3 receptor. Nature of the assay: GTPγS radioligand binding assay: inhibition of rhesus H3 constitutive functional activity in cell membranes (inverse agonism). Type of assay: biochemical, rhesus monkey (Macacca Mulatta). Further details: concentration or dose not given beside the values. As to conditions: negative value = below basal level. How it is done: (§1) Rhesus H3 membranes were prepared from the Flp-In T-REx 293 Cell Line (Invitrogen) stably transfected with pcDNA5/FRT/TO (Invitrogen) containing the rhesus monkey (Macacca Mulatta) 445 amino acid H3 receptor. (Genbank #AY231164). Stably transfected cultures were amplified in tissue culture flasks by standard tissue culture methods and induced to express rhesus H3 by exposure to 500 ng/ml tetracycline (Cellgro) for 24 hours. After induction, cells were dissociated from flasks utilizing Cell Stripper (Cellgro). Cells were centrifuged (1K×g, 5 min) and pellet frozen in an ethanol-dry ice bath to disrupt cell membranes. Frozen cell pellet was re-suspended in 5 mM HEPES (pH 7.4, Invitrogen) at 10 ml/1000 cm2 of harvested cells. The cell suspension was drawn through an 18 gauge needle (2-3×) followed by a 23 gauge needle (2-3×) to further disrupt cell membranes. The cell suspension was centrifuged (40K×g, 30 min). Cell membrane pellet was re-suspended in 5 mM HEPES (pH 7.4, Invitrogen) at a final protein concentration of 10 mg/ml. Rhesus H3 membranes were stored under liquid nitrogen prior to use in [3H]-Methylhistamine and GTP S radioligand binding assays.

Assay [2] concerns the target T1, rhesus (Macacca Mulatta) H3 receptor (Macaca mulatta, UniProt Q865E1).
T1 construct: pcDNA5/FRT/TO (Invitrogen) containing the rhesus monkey (Macacca Mulatta) 445 amino acid H3 receptor
Nature of the assay: Rhesus H3 radioligand binding assay ([3H]-methylhistamine displacement, WGA SPA beads). Further details: species or system rhesus monkey (Macacca Mulatta). As to conditions: [3H]-methylhistamine 2 nM; membranes of Flp-In T-REx 293 cells expressing rhesus H3; Cheng-Prusoff. The method, then: as §1
Rhesus H3 radioligand binding assay was performed using rhesus H3 receptor membranes (prepared as described above), [3H]-Methylhistamine (Perkin Elmer) and WGA SPA beads (wheat germ agglutinin scintillation proximity assay) beads (Amersham). The assay was performed in 96-well Opti-Plates (Packard). Each reaction contained 50 μl rhesus H3 membranes (20-30 μg total protein), 50 μl WGA SPA beads (0.1 μg) and 50 μl of 83 Ci/mmol [^3H]-Methylhistamine (final concentration 2 nM) and 50 μl of tested compound. The compounds of this invention and/or vehicle were diluted with binding buffer from 10 mM DMSO stocks. Assay plates were sealed with TopSeal (Perkin Elmer) and mixed on shaker (25° C., 1 hour). Assay plates were read on TopCount scintillation counter (Packard). Results were analyzed by Hill transformation and Ki values were determined by Cheng-Prusoff equation.

What is called Ki is a dissociation constant, usually derived from enzyme kinetics or from competition with a known ligand.

SMILES strings stand for the structures.

T1 sequence (Q865E1 1-445): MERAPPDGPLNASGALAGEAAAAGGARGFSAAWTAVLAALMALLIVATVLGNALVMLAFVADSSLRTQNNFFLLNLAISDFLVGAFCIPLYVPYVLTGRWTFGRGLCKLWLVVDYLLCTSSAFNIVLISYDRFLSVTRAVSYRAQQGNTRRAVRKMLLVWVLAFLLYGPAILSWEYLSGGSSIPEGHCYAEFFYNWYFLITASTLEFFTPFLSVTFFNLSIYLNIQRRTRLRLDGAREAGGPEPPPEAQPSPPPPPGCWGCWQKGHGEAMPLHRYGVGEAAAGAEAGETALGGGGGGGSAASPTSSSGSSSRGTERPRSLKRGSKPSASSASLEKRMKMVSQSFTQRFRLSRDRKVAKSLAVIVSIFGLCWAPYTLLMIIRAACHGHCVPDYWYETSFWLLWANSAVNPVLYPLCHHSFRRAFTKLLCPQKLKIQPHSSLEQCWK

As for `C[C@@H]1CCCN1[C@H]1CCN(c2ccc(N3CCCC4(CCOCC4)C3=O)c(F)c2)C1` [Example 38, 2-[2-Fluoro-4-((2R,3′S)-2-Methyl-[1,3′]bipyrrolidinyl-1′-yl)-phenyl]-9-oxa-2-aza-spiro[5.5]undecan-1-one], the “Inverse Agonism: % inhibition of Basal GTPγS binding in Rhesus H3” value (from here on “Inverse Agonism: % inhibition”) in assay [1] is −22%. The affinity in assay [2] corresponds to a Ki of 1.3 nM.

Consider `Cc1cc(N2CC[C@H](N3CCC[C@@H]3C)C2)ccc1N1CCCC2(CCOCC2)C1=O` [Example 2, 2-[2-Methyl-4-((2S,3′S)-2-methyl-[1,3′]bipyrrolidinyl-1′-yl)-phenyl]-9-oxa-2-aza-spiro[5.5]undecan-1-one], for which, in assay [1], the “Inverse Agonism: % inhibition” value is listed as −9%. Besides, in assay [2], the inhibitory constant (Ki) is 0.38 nM.

Take `CCC1CCCN1C1CCN(c2ccc(N3CCC4(CCOCC4)C3=O)c(C(F)(F)F)c2)CC1` (centres unmarked) [Example 18, 2-{4-[4-(2-Ethyl-pyrrolidin-1-yl)-piperidin-1-yl]-2-trifluoromethyl-phenyl}-8-oxa-2-aza-spiro[4.5]decan-1-one]: the “Inverse Agonism: % inhibition” value in assay [1] is given as −35%. In addition, the Ki in assay [2] turned out to be 4.3 nM.

As to `C[C@H]1CCCN1[C@H]1CCN(c2ccc(N3CCCC4(CCOCC4)C3=O)cc2)C1` [Example 37, 2-[4-((2S,3′S)-2-Methyl-[1,3′]bipyrrolidinyl-1′-yl)-phenyl]-9-oxa-2-aza-spiro[5.5]undecan-1-one], the “Inverse Agonism: % inhibition” value in assay [1] is listed as −20%. The compound further returned a Ki in assay [2] of 0.1 nM.

Take `Cc1cc(N2CC[C@H](N3CCC[C@H]3C)C2)ccc1N1CCCC2(CCOCC2)C1=O` [Example 28, 2-[2-Methyl-4-((2R,3′S)-2-methyl-[1,3′]bipyrrolidinyl-1′-yl)-phenyl]-9-oxa-2-aza-spiro[5.5]undecan-1-one]: the “Inverse Agonism: % inhibition” value in assay [1] is recorded as −13%. In addition, in assay [2], the affinity corresponds to a Ki of 13 nM.

For the compound `C[C@H]1CCCN1[C@H]1CCN(c2ccc(N3CCCC4(CCOCC4)C3=O)c(F)c2)C1` [Example 27, 2-[2-Fluoro-4-((2S,3′S)-2-methyl-[1,3′]bipyrrolidinyl-1′-yl)-phenyl]-9-oxa-2-aza-spiro[5.5]undecan-1-one], in assay [1], the “Inverse Agonism: % inhibition” value is −20%. Besides, the affinity in assay [2] corresponds to a Ki of 0.7 nM.

Turning to `C[C@H]1CCCN1C1CCN(c2ccc(N3CCC4(CCOCC4)C3=O)cc2)CC1` [Example 16, 2-{4-[4-((2S,3′S)-2-Methyl-pyrrolidin-1-yl)-piperidin-1-yl]-phenyl}-8-oxa-2-aza-spiro[4.5]decan-1-one], in assay [1], the “Inverse Agonism: % inhibition” value is −29%. In assay [2], this compound had a Ki of 0.52 nM.

As for `C[C@H]1CCCN1[C@@H]1CCN(c2ccc(N3CCCC4(CCOCC4)C3=O)c(F)c2)C1` [Example 40, 2-[2-Fluoro-4-((2S,3′R)-2-Methyl-[1,3′]bipyrrolidinyl-1′-yl)-phenyl]-9-oxa-2-aza-spiro[5.5]undecan-1-one], the “Inverse Agonism: % inhibition” value in assay [1] is −18%. In addition, the Ki in assay [2] came to 0.09 nM.

As to `C[C@H]1CCCN1[C@@H]1CCN(c2ccc(N3CCCC4(CCOCC4)C3=O)cc2)C1` [Example 36, 2-[4-((2S,3′R)-2-Methyl-[1,3′]bipyrrolidinyl-1′-yl)-phenyl]-9-oxa-2-aza-spiro[5.5]undecan-1-one], the “Inverse Agonism: % inhibition” value in assay [1] was −10%. The affinity in assay [2] corresponds to a Ki of 0.26 nM.

Consider `COCC1CCCN1C1CCN(c2ccc(N3CCC4(CCOCC4)C3=O)cc2)C1` (centres unmarked) [Example 15, 2-[4-(2-Methoxymethyl-[1,3′]bipyrrolidinyl-1′-yl)-phenyl]-8-oxa-2-aza-spiro[4.5]decan-1-one], for which the “Inverse Agonism: % inhibition” value in assay [1] is −26%. The compound further gave a Ki in assay [2] of 190 nM.

Regarding `C[C@H]1CCCN1[C@H]1CCN(c2ccc(N3CCC4(CCOCC4)C3=O)cc2F)C1` [Example 4, 2-[3-Fluoro-4-((2S,3′S)-2-methyl-[1,3′]bipyrrolidinyl-1′-yl)-phenyl]-8-oxa-2-aza-spiro[4.5]decan-1-one], the “Inverse Agonism: % inhibition” value in assay [1] is −31%. Further, the inhibitory constant (Ki) in assay [2] is 2.1 nM.

For the compound `CC(C)C1CCCN1C1CCN(c2ccc(N3CCC4(CCOCC4)C3=O)c(F)c2)C1` (centres unmarked) [Example 8, 2-[2-Fluoro-4-(2-isopropyl-[1,3′]bipyrrolidinyl-1′-yl)-phenyl]-8-oxa-2-aza-spiro[4.5]decan-1-one], the “Inverse Agonism: % inhibition” value in assay [1] was −22%. The compound also gave a Ki in assay [2] of 76 nM.

Regarding `CCC1CCCN1C1CCN(c2ccc(N3CCC4(CCOCC4)C3=O)c(F)c2)C1` (centres unmarked) [Example 7, 2-[4-(2-Ethyl-[1,3′]bipyrrolidinyl-1′-yl)-2-fluoro-phenyl]-8-oxa-2-aza-spiro[4.5]decan-1-one], in assay [1], the “Inverse Agonism: % inhibition” value is recorded as −35%. The compound also showed a Ki in assay [2] of 5.2 nM.

Consider `Cc1cc(N2CC[C@@H](N3CCC[C@@H]3C)C2)ccc1N1CCCC2(CCOCC2)C1=O` [Example 33], for which the “Inverse Agonism: % inhibition” value in assay [1] is −19%. Further, the Ki in assay [2] was determined as 1.4 nM.

For the compound `Cc1cc(N2CC[C@H](N3CCC[C@@H]3C)C2)ccc1N1CCC2(CCOCC2)C1=O` [Example 1, 2-[2-Methyl-4-((2S,3′S)-2-methyl-[1,3′]bipyrrolidinyl-1′-yl)-phenyl]-8-oxa-2-aza-spiro[4.5]decan-1-one], the “Inverse Agonism: % inhibition” value in assay [1] is on record as −25%. Also, the Ki in assay [2] is 0.93 nM.

On to `C[C@H]1CCCN1[C@H]1CCN(c2ccc(N3CCC4(CCOCC4)C3=O)cc2)C1` [Example 3, 2-[4-((2S,3′S)-2-Methyl-[1,3′]bipyrrolidinyl-1′-yl)-phenyl]-8-oxa-2-aza-spiro[4.5]decan-1-one], for which the “Inverse Agonism: % inhibition” value in assay [1] is listed as −26%. Also, the Ki in assay [2] stood at 0.63 nM.

On to `Cc1cc(N2CC[C@@H](N3CCC[C@H]3C)C2)ccc1N1CCCC2(CCOCC2)C1=O` [Example 32, 2-[2-Methyl-4-((2R,3′R)-2-methyl-[1,3′]bipyrrolidinyl-1′-yl)-phenyl]-9-oxa-2-aza-spiro[5.5]undecan-1-one], for which the “Inverse Agonism: % inhibition” value in assay [1] is given as −15%. In addition, affinity in assay [2] was put at a Ki of 11 nM.

As to `CCCC1CCCN1C1CCN(c2ccc(N3CCC4(CCOCC4)C3=O)cc2)CC1` (centres unmarked) [Example 14, 2-{4-[4-(2-Propyl-pyrrolidin-1-yl)-piperidin-1-yl]-phenyl}-8-oxa-2-aza-spiro[4.5]decan-1-one], the “Inverse Agonism: % inhibition” value in assay [1] is −33%. Also, affinity in assay [2] was put at a Ki of 13 nM.

On to `Cc1cc(N2CC[C@H](N3CCC[C@H]3C)C2)ccc1N1CCC2(CCOCC2)C1=O` [Example 6], for which the “Inverse Agonism: % inhibition” value in assay [1] is listed as −36%. Besides, the affinity in assay [2], expressed as Ki, was 38 nM.

On to `Cc1cc(N2CC[C@@H](N3CCC[C@@H]3C)C2)ccc1N1CCC2(CCOCC2)C1=O` [Example 30], for which the “Inverse Agonism: % inhibition” value in assay [1] is −29%. The compound further displayed a Ki in assay [2] of 4.3 nM.

On to `C[C@H]1CCCCN1C1CCN(c2ccc(N3CCC4(CCOCC4)C3=O)c(F)c2)CC1` [Example 12, 2-[2-Fluoro-4-((2S,3′S)-2-methyl-[1,4]bipiperidinyl-1′-yl)-phenyl]-8-oxa-2-aza-spiro[4.5]decan-1-one], for which the “Inverse Agonism: % inhibition” value in assay [1] is listed as −22%. For the same compound, the Ki in assay [2] is 0.45 nM.

In the case of `Cc1cc(N2CC[C@@H](N3CCC[C@H]3C)C2)ccc1N1CCC2(CCOCC2)C1=O` [Example 29, 2-[2-Methyl-4-((2R,3′R)-2-methyl-[1,3′]bipyrrolidinyl-1′-yl)-phenyl]-8-oxa-2-aza-spiro[4.5]decan-1-one], the “Inverse Agonism: % inhibition” value in assay [1] was −28%. Further, in assay [2], affinity was put at a Ki of 28 nM.

In the case of `Cc1cc(N2CCC(N3CCCC3C)C2)ccc1N1CCC2(CCOCC2)C1=O` (centres unmarked) [Example 31, 2-[2-Methyl-4-(2-methyl-[1,3′]bipyrrolidinyl-1′-yl)-phenyl]-8-oxa-2-aza-spiro[4.5]decan-1-one], the “Inverse Agonism: % inhibition” value in assay [1] is −28%. In assay [2], this compound gave a Ki of 6.2 nM.

For `CCCC1CCCN1C1CCN(c2ccc(N3CCC4(CCOCC4)C3=O)c(C(F)(F)F)c2)C1` (centres unmarked) [Example 20, 2-[4-(2-Propyl-[1,3′]bipyrrolidinyl-1′-yl)-2-trifluoromethyl-phenyl]-8-oxa-2-aza-spiro[4.5]decan-1-one], the “Inverse Agonism: % inhibition” value in assay [1] is given as −12%. The same compound displayed an inhibition constant Ki in assay [2] of 650 nM.

As to `CC(C)C1CCCN1C1CCN(c2ccc(N3CCC4(CCOCC4)C3=O)c(C(F)(F)F)c2)CC1` (centres unmarked) [Example 19, 2-{4-[4-(2-Isopropyl-pyrrolidin-1-yl)-piperidin-1-yl]-2-trifluoromethyl-phenyl}-8-oxa-2-aza-spiro[4.5]decan-1-one], the “Inverse Agonism: % inhibition” value in assay [1] is −8%. This compound returned a Ki in assay [2] of 100 nM.
